This is an account of results in PMC8998618, “A Pharmacokinetic and Metabolism Study of the TRPC6 Inhibitor SH045 in Mice by LC-MS/MS” (International Journal of Molecular Sciences, 2022).

A short description of data set [1]: tissue homogenate binding by ultrafiltration. The format is in vitro ADME, mice. On the procedure:
After centrifugation of mixtures from tissue or microsomal incubations for 15 min at 4 °C, the supernatants were filtered through a 0.2 -µm-pore-size syringe filter and stored in the autosampler at 6 °C until analysis by LC-MS/MS as […]
SM5 Tissue binding of SH045
The tissue binding of SH045 was analyzed exemplarily in lung, liver and kidney homogenate using ultrafiltration [5]. Appropriate concentrations of homogenate and SH045 were optimized out of data from a series of various dilution ratios of tissue homogenates (1/2, 1/5, 1/10 and 1/20, w/v) and SH045 concentrations in spiked homogenate (liver and kidney: 0.05, 0.1, 0.5, 1, 2, 5 µg/mL; lung: 1, 2, 5, 10, 20, 50 µg/mL, not shown). Tissue binding assays were performed as follows: 448 µL tissue homogenates (1/10, w/v) were mixed with 2 µL SH045 (final: 50 µg/ml for lung, 2 µg/ml for liver and 1 µg/ml kidney). After incubation for 15 min at 37 °C at 450 rpm, 400 µL of the mixture was transferred to centrifugal filter units (30kDa) and centrifuged for 20 min at 2000g and 37 °C. 20 µL of the mixture and the filtrate were analyzed for SH045. The concentration in the filtrate refers to the unbound SH045 concentration according to tissue binding (%) = (ctot – cfiltrate) / ctotal × 100%. […]
Mean maximum rate vmax and Michaelis- […]
CLint,micr the intrinsic clearance CLint, equal to the maximum enzyme activity of liver and for in vitro-in vivo exploration of hepatic clearance CLhep in mouse and human using the “well-stirred” model [6].
(§1) SM7 Identification of metabolism pathways and metabolites of SH045 in MLM and HLM To determine possible metabolism pathways of SH045 in MLM and HLM, an in vitro inhibition approach was performed with CYP-isoform specific inhibitors (final concentration): ciprofloxacin (CYP1A2; 150 µM), pilocarpine (CYP2A6; 50 µM), ticlopidine (CYP2B6; 5 µM), quercetin (CYP2C8; 2 µM), sulfaphenazole (CYP2C9; 10 µM), fluvoxamine (CYP2C19; 10 µM), quinidine (CYP2D6; 10 µM), 4-methyl pyrazole (CYP2E1; 100 µM) and ketoconazole (CYP3A4; 1 µM) [7, 8]. […]

Data set [2] in a line: time-dependent metabolization (stability) in MLM and IVIVE of hepatic clearance. Format: in vitro ADME, mouse.
Excerpt: In the widely used concept of the “well-stirred” model, liver represents a single uniform compartment. It is further assumed that the concentration of unbound SH045 leaving the liver is in equilibrium with its unbound concentration in hepatocytes (detailed calculation in Supplementary Materials SM8, summarized values in SR4). Briefly, microsomal intrinsic clearance was converted to hepatic clearance: CLhep = Q × fu × CLint/Q + (fu × CLint), where fu is the unbound fraction of SH045 in blood and Q is the hepatic blood flow in mice.
For this purpose, remaining concentrations of SH045 in microsomes were determined to calculate the intrinsic microsomal clearance CLint,micr, the intrinsic clearance CLint, equal to the maximum enzyme activity of liver and for in vitro-in vivo exploration of hepatic clearance CLhep in mouse and human using the well-stirred model. The algorithm for these calculations is given in detail in the Supplementary Materials SM8. […]
All microsome incubations were stopped with 1 mL ice -cold ACN containing 5 µg/mL IS, vortexed for 1 min and cooled at -20 °C for 10 min. […]
SM6 Metabolization studies in MLM and HLM and calculation of hepatic clearance For determination of vmax and Km of the NADPH-dependent microsomal depletion of SH045, the following incubations were performed for MLM and HLM, respectively. 2 µL SH045 (final concentration 0.5 – 100 µM, in triplicate), 12.5 µL HLM or MLM (finally 0.5 mg/mL protein) and 460.5 µL DPBS were vortexed and preincubated 37 °C for 5 min. The reaction was initiated by addition of 25 µL analogously pre-incubated β-NADPH (finally: 1 mM).
After gentle shaking at 37 °C and 300 rpm for 10 min, incubations were terminated and samples prepared as described […]
Testosterone (10 µM in ACN/DPBS 2/3, v/v) instead of SH045 was used as positive control and analyzed by an appropriate HPLC method with UV detection.
Negative controls contained either no NADPH, no MLM or HLM or none of them. […]
Menten constant Km were calculated using Lineweaver-Burk transformation. From Km an appropriate drug concentration of 2 µM was derived as prerequisite for experimental in vitro determination of t1/2 required for further exploration of clearance.
For this purpose, microsomes were incubated as described above with 2 µM SH045 for indicated time intervals up to 30 min. The remaining concentrations of SH045 were determined to calculate the intrinsic microsomal clearance CLint,micr the intrinsic clearance CLint, equal to the maximum enzyme activity of liver and for in vitro-in vivo exploration of hepatic clearance CLhep in mouse and human using the “well-stirred” model [6].
as §1, with “8]. The inhibitors were dissolved in DPBS and appropriate methanol, the organic solvents not” for “8].”
SH045 (2 µM) was pre-incubated with MLM or HLM (0.5 mg/mL) and the specific inhibitor for 5 min at 37 °C in DPBS.
Ticlopidine, a time-dependent inhibitor was pre-incubated for 15 min [9]. Incubations were performed in triplicate with NADPH (1 mM) in a final volume of 500 µL for 2 min and 10 min with pre-incubated MLM and HLM, respectively, terminated with 1 mL ice-cold ACN and processed as described above for LC-MS/MS. A sample without any inhibitor served as a positive control. Incubations with an equal volume of DMSO instead of SH045 and samples without NADPH, MLM or HLM or both, respectively, served as negative controls.
To explore metabolites of SH045 formed by microsomes, D PBS, alamethicin (25 µg/mL) [10] and MLM or HLM (1.0 […]

On to `C=C[C@@](C)(O)CC[C@H]1C(=C)C[C@H](OC(=O)NC)[C@H]2C(C)(C)CCC[C@]12C` [SH045, (1S,4S,4aR,8aS)-4-((S)-3-Hydroxy-3-methylpent-4-en-1-yl)-4a,8,8-trimethyl-3-methylenedecahydronaphthalen-1-yl methylcarbamate], for which the Tissue binding in data set [1] (kidney) is listed as 98%; in data set [1] (liver), 97%; in data set [1] (lung) it was 97%. For the same compound, the microsomal CLint at 2 µM in data set [2] (CD-1, mouse, liver microsomes, mouse liver microsomes, read-out: CLint, micr) turned out to be 1170 µL/min/mg. In data set [2] (CD-1, mouse, liver microsomes, mouse, scaled from CLint,micr), the intrinsic clearance (CLint scaled) at 2 µM is 276 L/h/kg. This compound gave a half-life at 2 µM in data set [2] (male, CD-1, pH 7.4, mouse liver microsomes 0.5 mg/mL, 2 µM SH045, NADPH) of 1.18 min. The “CLint, micr” value in data set [2] (mouse liver microsomes) came out at 1173.6 µL/min/mg. In addition, in data set [2] (mouse, predicted by well-stirred model, fu 0.3%, Q 90 mL/min/kg), the CLhep is 0.717 L/h/kg. This compound also came in with a CLint in data set [2] (mouse, scaled from CLint,micr) of 275.68 L/h/kg.
